Converted amounts (≈) assume the structure as drawn. The source made the active and inactive calls. The calls are words filed in the database; no cut-off is given here.
Experiments:
[1] = biological target: T1, L-2,3-diaminopropanoate--citrate ligase (Staphylococcus aureus (strain NCTC 8325 / PS 47)) (UniProt Q2G1M9); experiment: Inhibition of Staphylococcus aureus SbnE at 50 uM incubated for 1 hr by malachite green staining based microplate reader analysis relative to control
T1 sequence (whole entry): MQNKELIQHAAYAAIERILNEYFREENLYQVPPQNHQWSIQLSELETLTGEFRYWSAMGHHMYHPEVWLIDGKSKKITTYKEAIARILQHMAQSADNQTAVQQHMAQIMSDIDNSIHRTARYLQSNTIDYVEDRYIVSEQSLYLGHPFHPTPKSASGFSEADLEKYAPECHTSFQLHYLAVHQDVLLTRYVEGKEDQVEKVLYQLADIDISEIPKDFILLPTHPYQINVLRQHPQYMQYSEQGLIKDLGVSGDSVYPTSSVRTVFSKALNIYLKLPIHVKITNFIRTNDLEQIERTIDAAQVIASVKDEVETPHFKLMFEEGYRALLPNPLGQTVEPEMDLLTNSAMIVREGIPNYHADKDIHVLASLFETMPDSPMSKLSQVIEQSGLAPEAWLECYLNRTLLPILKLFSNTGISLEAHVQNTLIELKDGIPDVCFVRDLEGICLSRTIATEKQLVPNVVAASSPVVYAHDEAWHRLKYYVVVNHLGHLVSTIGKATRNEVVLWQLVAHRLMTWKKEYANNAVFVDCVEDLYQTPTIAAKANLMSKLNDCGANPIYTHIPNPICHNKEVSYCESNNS

Staphylococcus aureus [2] = experiment: Antibacterial activity against methicillin resistant Staphylococcus aureus CCARM3167 assessed as inhibition in bacterial growth incubated for 18 hrs by microdilution method; type: functional
[3] = biological target: T2, L-2,3-diaminopropanoate--citrate ligase (Staphylococcus aureus (strain NCTC 8325 / PS 47), UniProt Q2G1M9); experiment: Inhibition of Staphylococcus aureus SbnE incubated for 1 hr by malachite green staining based microplate reader analysis
T2 sequence (Q2G1M9 whole entry): T1 sequence (whole entry)

Staphylococcus aureus [4] = experiment: Antibacterial activity against […] Staphylococcus aureus ATCC25923 assessed as inhibition in bacterial growth incubated for 18 hrs by microdilution method; type: functional
Staphylococcus aureus [5] = experiment: Antibacterial activity against methicillin resistance Staphylococcus aureus assessed as reduction in biofilm formation at 1/2 times MIC incubated 24 hrs by crystal violet staining based microplate reader analysis; type: functional, organism-based
Cell membrane = experiment: Induction of membrane disruption in methicillin resistant Staphylococcus aureus CCARM3167 at MIC incubated for 30 mins PI staining based Flow cytometry
[6] = Antibacterial activity against Bacillus subtilis ATCC6633 assessed as inhibition of bacterial growth incubated for 18 hrs by microdilution method; type: functional, Bacillus subtilis […]
Bacillus cereus = experiment: Antibacterial activity against Bacillus cereus ATCC27348 assessed as inhibition of bacterial growth incubated for 18 hrs by microdilution method; type: functional
Salmonella typhimurium = experiment: Antibacterial activity against Salmonella typhimurium ATCC14028 assessed as inhibition of bacterial growth incubated for 18 hrs by microdilution method; type: functional, Salmonella enterica subsp. enterica serovar Typhimurium; settings: Salmonella enterica
Escherichia coli = experiment: Antibacterial activity against Escherichia coli MC1061 assessed as inhibition of bacterial growth incubated for 18 hrs by microdilution method; type: functional
Staphylococcus aureus [7] = experiment: Antibacterial activity against quinolone-resistant Staphylococcus aureus CCARM3505 assessed as inhibition of bacterial growth incubated for 18 hrs by microdilution method; type: functional

Row | Structure (SMILES) | inhibition [1] [%] | MIC (Staphylococcus aureus [2]) [µg/mL] | IC50 [3] [µM] | MIC (Staphylococcus aureus [4]) [µg/mL] | Activity (Staphylococcus aureus [5]) | Activity (Cell membrane) | MIC [6] [µg/mL] | MIC (Bacillus cereus) [µg/mL] | MIC (Salmonella typhimurium) [µg/mL] | MIC (Escherichia coli) [µg/mL] | MIC (Staphylococcus aureus [7]) [µg/mL]
1 | CC(C)C[C@H]([C@H](O)C[C@H](O)C#C[C@@H](C)C[C@@H](C)C[C@@H](C)COCc1ccccc1)[C@@H](O)c1cc(O)cc(O)c1 | 77.5 | 4 (≈ 7.4 µM) | 11.4 | 1 (≈ 1.85 µM) | Active | Active |  |  |  |  | 
2 | CC(C)C[C@@H]([C@H](O)C[C@H](O)C#CCCCCCCOCc1ccccc1)[C@@H](O)c1cc(O)cc(O)c1 | 97.1 | 128 (≈ 257 µM) | 7.16 | 128 (≈ 257 µM) |  |  |  |  |  |  | 
3 | CC(C)C[C@H]([C@H](O)C[C@H](O)C#CCCCCCCOCc1ccccc1)[C@@H](O)c1cc(O)cc(O)c1 | 81.9 | 128 (≈ 257 µM) | 10.2 | 128 (≈ 257 µM) |  | Active | > 256 | 64 (≈ 128 µM) | > 256 | > 256 | 128 (≈ 257 µM)
4 | CC(C)C[C@@H]([C@H](O)CCNCc1ccccc1)[C@@H](O)c1cc(O)cc(O)c1 | 5.63 | > 256 |  | > 256 |  |  |  |  |  |  | 
5 | CCC(=O)[C@H](C)C[C@H](C)C[C@H](C)CC[C@@H](O)C[C@@H](O)[C@@H](CC(C)C)[C@@H](O)c1cc(O)cc(O)c1 | 61.2 | 256 (≈ 533 µM) | 14.4 | 256 (≈ 533 µM) |  | Active | > 256 | 256 (≈ 533 µM) | > 256 | 64 (≈ 133 µM) | 64 (≈ 133 µM)
6 | CC(C)C[C@H]([C@H](O)CCNc1ccccc1O)[C@@H](O)c1cc(O)cc(O)c1 | 4.87 | 64 (≈ 170 µM) |  | 64 (≈ 170 µM) |  |  |  |  |  |  | 
7 | CC(C)C[C@@H]([C@H](O)CCCCCCCCCCO)[C@@H](O)c1cc(O)cc(O)c1 | 19.8 | > 256 |  | > 256 |  |  |  |  |  |  | 
8 | CCC(=O)[C@@H](C)C[C@@H](C)C[C@@H](C)CCCC[C@@H](O)[C@@H](CC(C)C)[C@@H](O)c1cc(O)cc(O)c1 | 81.5 | 4 (≈ 8.61 µM) | 16.4 | 8 (≈ 17.2 µM) |  |  |  |  |  |  | 
9 | CC(C)C[C@H]([C@H](O)CCNc1cccc(C(F)(F)F)c1)[C@@H](O)c1cc(O)cc(O)c1 | 71.1 | 16 (≈ 37.4 µM) | 6.12 | 8 (≈ 18.7 µM) | Active | Active | 64 (≈ 150 µM) | 8 (≈ 18.7 µM) | > 256 | > 256 | 8 (≈ 18.7 µM)
10 | C[C@@H](CO)C[C@H](C)C[C@H](C)C#CC(O)CC(O)C[C@@H](O)c1cc(O)cc(O)c1 (single isomer, unassigned) | 6.92 | 128 (≈ 324 µM) |  | 128 (≈ 324 µM) |  |  |  |  |  |  | 
11 | CC(C)C[C@@H]([C@H](O)C[C@H](O)CC[C@@H](C)C[C@H](C)C[C@@H](C)CO)[C@@H](O)c1cc(O)cc(O)c1 | 31.1 | > 256 |  | > 256 |  |  |  |  |  |  | 
12 | CCn1cc(C(=O)O)c(=O)c2cc(F)c(N3CCNCC3)cc21 [NORFLOXACIN] | 16.8 | 4 (≈ 12.5 µM) |  | > 256 |  |  | 4 (≈ 12.5 µM) | 2 (≈ 6.26 µM) | 2 (≈ 6.26 µM) | 2 (≈ 6.26 µM) | > 256
13 | C=CC[C@@H](O)[C@H](CC(C)C)[C@@H](O)c1cc(O)cc(O)c1 | 39.5 | > 256 |  | > 256 |  |  |  |  |  |  | 
14 | Cc1onc(-c2ccccc2)c1C(=O)N[C@@H]1C(=O)N2[C@@H]1SC(C)(C)[C@@H]2C(=O)O [OXACILLIN] | 10.2 | > 256 |  | 0.25 (≈ 0.623 µM) |  |  | 8 (≈ 19.9 µM) | 32 (≈ 79.7 µM) | 64 (≈ 159 µM) | 64 (≈ 159 µM) | > 256
15 | CC(C)C[C@H]([C@H](O)CCNCc1cccc([N+](=O)[O-])c1)[C@@H](O)c1cc(O)cc(O)c1 | 50.8 | > 256 | 92.5 | > 256 |  |  |  |  |  |  | 
16 | C=CC[C@@H](O)[C@@H](CC(C)C)[C@@H](O)c1cc(O)cc(O)c1 | 96.8 | > 256 | 8.2 | > 256 |  |  |  |  |  |  | 
17 | C[C@@H](COCc1ccccc1)C[C@H](C)C[C@H](C)C#CC(O)c1cc(O)cc(O)c1 (some centres not stated) | 34.8 | 4 (≈ 10.1 µM) |  | 2 (≈ 5.04 µM) |  |  |  |  |  |  | 
18 | CC(C)C[C@@H]([C@H](O)C[C@H](O)C#C[C@@H](C)C[C@H](C)C[C@@H](C)COCc1ccccc1)[C@@H](O)c1cc(O)cc(O)c1 | 76.8 | 64 (≈ 118 µM) | 11.8 | 64 (≈ 118 µM) |  |  |  |  |  |  | 
19 | CC(C)C[C@@H]([C@H](O)C[C@H](O)CCCCCCCCO)[C@@H](O)c1cc(O)cc(O)c1 | 38.4 | > 256 |  | > 256 |  |  |  |  |  |  | 

Source: ChEMBL document CHEMBL5625182, “Synthesis and antibacterial activities of baulamycin A inspired derivatives” (Eur J Med Chem, 2023)
